Measured values taken from ChEMBL document CHEMBL1121952, “Directional probes of the hydrophobic component of the aromatic ring binding site of norepinephrine N-methyltransferase” (J Med Chem, 1982).

T1: Phenylethanolamine N-methyltransferase (Bos taurus, UniProt P10938)
T1 sequence (P10938 whole entry): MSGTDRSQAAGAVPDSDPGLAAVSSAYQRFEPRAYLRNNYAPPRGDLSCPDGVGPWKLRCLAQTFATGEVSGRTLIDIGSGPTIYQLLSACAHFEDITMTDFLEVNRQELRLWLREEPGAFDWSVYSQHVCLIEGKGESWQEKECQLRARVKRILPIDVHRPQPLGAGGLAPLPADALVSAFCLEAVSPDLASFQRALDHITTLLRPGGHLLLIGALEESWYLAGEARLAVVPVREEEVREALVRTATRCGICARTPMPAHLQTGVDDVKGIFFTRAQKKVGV


Assays:
[1] = molecular target: T1, Phenylethanolamine N-methyltransferase; experiment: (§1) The inhibitory constant(Ki) value for Norepinephrine N-methyl-transferase was calculated
[2] = Vmax/Km x100 value of the compound; format: ADME
[3] = compound: NCC(O)c1ccc(-c2ccccc2)cc1; experiment: as §1
[4] = compound: NCC(O)c1ccc2ccccc2c1; experiment: as §1
[5] = compound: NCC(O)c1cccc(-c2ccccc2)c1; experiment: as §1
[6] = compound: NCC(O)c1cccc2ccccc12; experiment: as §1

Molecule	Vmax / Kmax100 [2]	Ki [1] [µM]	other results
CC(N)Cc1ccc(-c2ccccc2)cc1 (stereo not drawn)		262	
CC(N)c1ccc(-c2ccccc2)cc1 (stereo not drawn)		737	
NCC(O)c1cccc(-c2ccccc2)c1 (stereo not drawn)	1.42		
NC[C@@H](O)c1ccccc1	1.62		
CC(N)Cc1cccc(-c2ccccc2)c1 (stereo not drawn)		> 2000	
CC(N)c1cccc(-c2ccccc2)c1 (stereo not drawn)		89	
Phenylethanolamine N-methyltransferase (Bos taurus), P10938 (protein) MSGTDRSQAAGAVPDSDPGLAAVSSAYQRFEPRAYLRNNYAPPRGDLSCPDGVGPWKLRCLAQTFATGEVSGRTLIDIGSGPTIYQLLSACAHFEDITMTDFLEVNRQELRLWLREEPGAFDWSVYSQHVCLIEGKGESWQEKECQLRARVKRILPIDVHRPQPLGAGGLAPLPADALVSAFCLEAVSPDLASFQRALDHITTLLRPGGHLLLIGALEESWYLAGEARLAVVPVREEEVREALVRTATRCGICARTPMPAHLQTGVDDVKGIFFTRAQKKVGV			Km [3]: 64 µM; Km [4]: 20 µM; Km [5]: 656 µM; Km [6]: 132 µM

Further lines, with some results ahead:

Vmax / Kmax100 [2]	Molecule	Ki [1] [µM]	other results
5.44	NCC(O)c1ccc(-c2ccccc2)cc1 (stereo not drawn)		
5.6	NCC(O)c1ccc2ccccc2c1 (stereo not drawn)		
1.29	NCC(O)c1cccc2ccccc12 (stereo not drawn)		
